{"source": "patent US7585839B2", "about": "“Medical uses of intercellular communication facilitating compounds” (Zealand Pharma A/S, priority 2001, dated 2009)", "key": {"[1]": {"assay": "In vitro plasma and serum stability, human", "format": "in vitro ADME", "details": "for T½, PLASMA, HEPARIN HUMAN: 37° C., 0.1 mg/ml", "protocol": "(§1) The stability of peptides is analysed in serum and plasma. The peptides are incubated at 37° C. in plasma or serum and samples taken at approx. 9 regular intervals between t=0 and t=156 min are analysed by HPLC.\n(§2) This is done by subsequent injections of the drug, plasma, and a co-injection with the drug and the plasma, followed by optimisation of the LC method parameters until a satisfactory separation is obtained. Three parallel experiments are performed for each plasma type. 100 ml of peptide is mixed with 900 ml plasma at t=0 and incubated at 37° C. (drug-plasma mixture conc. 0.1 mg/ml). Samples of 100 ml of the drug-plasma mixture are removed at appropriate intervals and the degradation stopped by precipitation of the sample with 10 ml MeCN:TFA 50:50 v/v. A control plasma sample without the drug treated in the same manner is also taken. The plasma samples are centrifuged for 15 min. at 12,000 rpm (Eppendorf centrifuge) at ambient temperature. The resulting supernatant solution is transferred to 300 ml HP autosamler vials and analyzed by HPLC. The samples are analyzed in the following order: blank, the peptide at 0.1 mg/mL, the plasma without the peptide, the three parallel samples for t=0, the three parallel samples for t=5 min. the three parallel samples for t=10 min. etc. And finally the three parallel samples for t=0 are repeated to make sure that there have been no degradation or other failure during the analyses. The sample concentrations (peak height in mAU) are plotted vs. time and fitted to a function describing a mono exponential decay (Excel)."}, "human osteoblastic cells": {"tested_on": "human osteoblastic cells", "assay": "DDT-induced uncoupling in human osteoblast cells, Lucifer Yellow microinjection", "format": "cell-based", "details": "13 μM, 60 minutes; control 14.5 cells", "protocol": "Human osteoblast cells: Cells were isolated from human bone marrow obtained by puncture of the posterior iliac spine of healthy volunteers (aged 20-36): 10-15 ml marrow material was collected in 15 ml PBS+Ca, Mg (Life Technologies, Cat.No. 14040) with 100 U/ml Heparin (Sigma, Cat.No. H-3149). The mononuclear fraction of the marrow was isolated on a Lymphoprep gradient (Nycomed Pharma, Cat.No. 1001967), by centrifugation at 2200 rpm for 30 min. After harvesting, the mononuclear fraction was washed once with culture medium and centrifuged at 1800 rpm for 10 min. Subsequently cells were counted and plated in culture medium at 8×10^6 cells/100 mm dish. hOB medium (all reagents obtained from Life Technologies): MEM w/o Phenol Red w/Glutamax (Cat.No. 041-93013) supplemented with 10% heat inactivated fetal calf serum (Cat.No. 10106) and 0.1% Penicillin/Streptomycin (Cat.No. 15140). Medium was changed the following day and the cells were cultured at 37° C. in 5%CO2 with medium change every 7 days. After 3-4 weeks of culture the cells had reached 70% confluence. The medium was then supplemented with 100 nM Dexamethasone (Sigma, Cat.No. D-4902) for 7 days. Cells were then plated for video imaging experiments: a 25 mm #1 glass coverslip was placed in a 35 mm dish (or each well of a 6-well multidish), cells were plated at 2.5×10^5 cells/coverslip and cultured for 2-3 days before use. […]"}, "[2]": {"tested_on": "phosphoinositol turnover in neonatal rat cardiomyocytes", "assay": "Phosphoinositol turnover in primary cardiomyocyte cultures", "format": "cell-based", "protocol": "Neonatal Wistar rats (1-2 days old) are used. Hank's calcium- and magnesium-free balanced salt solution, buffered with 10 mM HEPES is used for washing during cell separation procedures. The hearts are excised, the ventricles isolated and the tissue cut into small pieces. The myocardial cells are isolated by stepwise enzymatic degradation with collagenase 0.05%, as described by ^[35]. After repeated rounds of centrifugation and washing, the precipitated cells are resuspended in culture medium M199 with Earle's salt, 10% NCS, penicillin (75 U/mL), and streptomycin (75 U/mL) and pre-plated in a Petri dish for 90 minutes. The non-adherent cells are collected in the culture medium and plated in multidishes at 2.5*10^5 cells/well. The cultures are kept in a water-saturated CO2-incubator at 37° C. The cardiomyocyte cultures are used for analyses after 6-7 days.\nCardiomyocyte cultures are incubated for 48 hours in culture medium containing 4 μCi/mL myo-[2-^3H]inositol to label the inositol phospholipids. On the day of analysis the medium is replaced by a buffer solution containing lithium and incubated at 37° C., as described by Meier et al.^[36]. After at least five minutes this buffer is replaced by the same volume of buffer containing test compound and incubated for exactly 20 minutes. The reaction is stopped by rapid replacement of the buffer by ice cold 4% v/v perchloric acid (PCA) and incubation for at least 20 minutes at 0° C. The PCA-extract is neutralised and the [^3H]inositol phosphates are separated by anion-exchange chromatography using Amprep™ columns containing 100 mg SAX Quaternary amine. The [^3H]inositol mono-phosphates are eluted and radioactivity in the fraction measured by liquid scintillation counting.\nBefore adding test substances to the cultures, the cells are depleted of glucose and oxygen by incubating them in a N2-atmosphere in glucose-free lithium-buffer for 10 minutes at 37° C. Control cells are incubated likewise only at normal atmospheric conditions and in a buffer containing glucose."}, "[3]": {"tested_on": "calcium-induced arrythmias", "assay": "Calcium-induced arrhythmia model in mice (CaCl2-induced 2nd degree AV-block)", "format": "in vivo", "details": "for CaCl2 mice In vivo, % / CaCl2 mice Score: calcium chloride induced arrythmia model; for In vivo activity: maximal effect, increase in time until 2nd degree AV-block relative to vehicle treated mice, i.v.", "protocol": "The antiarrhythmic effects of compounds of this invention were tested in an in vivo model of calcium-induced arrythmias according to the model of Lynch et al.^[37]. […]. Commercial solutions of hypnorm and midazolam were diluted 1:1 in distilled water and one part diluted Hypnorm® is mixed with one part diluted midazolam.\nThe anaesthesia was induced by s.c. administration in a dose of 0.05-0.075 μl/10 gram mouse. An i.v. cannula was inserted into the tail vein. The lead II ECG signal was recorded continuously by positioning of a stainless steel ECG electrodes on the right forelimb and on the left hind limb. The ground electrode was placed on the right hind limb. The signal was amplified (×5.000-10.000) and filtered (0.1-150 Hz) via a Hugo Sachs Electronic model 689 ECG module. The analogue signal was digitised via a 12 bit data acquisition board (Data Translation model DT321) and sampled at 1000 Hz using the Notocord HEM 3.1 software for Windows NT. After a 10-min equilibration period, the test sample of drug was injected into the tail vein. Mice pre-treated with vehicle were tested as a measure of the control level in untreated animals. The injection volume was 100 μl in all experiments. Infusion of CaCl2 (30 mg/ml, 0.1 ml/min≈100 mg/kg/min (calciumchlorid-2-hydrat, Riedel-de Haën, Germany)) was started 3 min after i.v. administration of drug or vehicle.\nThe time lag to onset of 2nd degree AV-block was determined as the time from the start of CaCl2 infusion until the first arrhythmic event occured. An event of 2nd degree AV-block was defined as intermittent failure of the AV conduction characterised by a P-wave without the concomitant QRS complex.\nResponses were expressed relative to the time until 2nd degree AV-block occurred in vehicle treated mice."}, "[4]": {"tested_on": "WB-F344 rat liver epithelial cells", "details": "cited from earlier work"}, "[5]": {"tested_on": "connexin 43 in keratinocytes", "details": "keratinocytes of middel aged and elderly people; cited from earlier work"}, "[6]": {"assay": "In vitro plasma and serum stability, rabbit", "format": "in vitro ADME", "details": "37° C., 0.1 mg/ml", "protocol": "as §1\nas §2, with “And finally the three parallel samples for t=0 are repeated to make sure that there have been no degradation or other failure during the analyses. The sample concentrations (peak height in mAU) are plotted vs. time and fitted to a function describing a mono exponential decay (Excel).” left out"}, "[7]": {"tested_on": "regional ischemia in the rabbit", "details": "cited from earlier work"}, "[8]": {"tested_on": "membranes from rabbit heart", "details": "cited from earlier work"}, "[9]": {"tested_on": "cerulein-induced acute pancreatitis", "details": "100 mg/kg orally; pancreatitis group 19%; cited from earlier work"}, "GJIC": {"tested_on": "GJIC", "details": "10(−10) to 10(−6) M; cited from earlier work"}}, "note": "[ ]: non-standard residue; d: D form. Hyp = O=C(O)[C@@H]1C[C@@H](O)CN1"}
{"compound": "H-PYNGAG[Hyp]-NH2 [Compound 27]", "values": [{"measurement": "stability in plasma and serum compared with AAP10", "setting": "[1]", "result": "considerably more stable"}]}
{"compound": "Clc1ccc(C(c2ccc(Cl)cc2)C(Cl)(Cl)Cl)cc1", "note": "[DDT, 1,1-bis(p-chlorophenyl)-2,2,2-trichlorethane, reference compound]", "values": [{"measurement": "cellular coupling, median number of cells with dye", "setting": "human osteoblastic cells", "result": 7, "unit": "cells"}]}
{"compound": "NC[C@H](O)c1ccc(O)c(O)c1", "note": "[Noradrenaline]", "values": [{"measurement": "Emax of phosphoinositol turnover", "setting": "[2]; atmosphere of N2 and depleted of glucose", "result": "2248±702", "unit": "cpm"}, {"measurement": "Emax of phosphoinositol turnover", "setting": "[2]; normal atmospheric and nutritional conditions", "result": "3852±266", "unit": "cpm"}]}
{"compound": "Oc1ccc(C=Cc2cc(O)cc(O)c2)cc1", "note": "[Resveratrol, resveratrol]", "values": [{"measurement": "time until calcium-induced block relative to animals treated with vehicle", "setting": "[3]; iv, 0.1 umol/kg", "result": "136±9", "unit": "%"}, {"measurement": "prevention of down-regulation of GJIC by DDT, factor", "setting": "[4]; 17-50 microM", "result": 1.8}, {"measurement": "prevention of down-regulation of GJIC by TPA, factor", "setting": "[4]; 17-50 microM", "result": 2.7}, {"measurement": "increase of GJIC, factor compared with solvent vehicle controls", "setting": "[4]; 17 to 50 microM, 6 h", "result": 1.3}]}
{"compound": "COc1cc2c(cc1O)C[C@H]1c3c(cc(O)c(OC)c3-2)CCN1C", "note": "[boldine]", "values": [{"measurement": "optimal concentration for increase of the content of connexin 43", "setting": "[5]", "result": 50, "unit": "nM"}]}
{"compound": "cyclo(GAG[Hyp]PYN) [Compound 36]", "values": [{"measurement": "CaCl2 mice In vivo, %", "setting": "[3]", "result": "57 +/− 8%"}, {"measurement": "CaCl2 mice Score", "setting": "[3]", "result": 2}, {"measurement": "In vivo activity", "setting": "[3]", "result": "+++ (+++ refers to >60% increase in time until arrhythmia)"}, {"measurement": "T½, PLASMA, HEPARIN RABBIT", "setting": "[6]", "result": "30 hrs ± 8%"}, {"measurement": "Human plasma half life", "setting": "[1]", "result": 13, "unit": "h"}, {"measurement": "T½, PLASMA, HEPARIN HUMAN", "setting": "[1]", "result": "9 hrs ± 1%"}]}
{"compound": "H-GAG[Hyp]PY-NH2 [AAP10]", "values": [{"measurement": "EC50 relative to the EC50 value for Compound 2", "setting": "[2]; metabolic stress induced by anoxia and glucose deprivation", "result": 10, "unit": "fold"}, {"measurement": "EC50 relative to the EC50 value for Compound 2", "setting": "[2]; normoxia", "result": 200, "unit": "fold"}, {"measurement": "CaCl2 mice In vivo, %", "setting": "[3]", "result": "76 +/− 21%"}, {"measurement": "CaCl2 mice Score", "setting": "[3]", "result": 3}, {"measurement": "In vivo activity", "setting": "[3]", "result": "+++ (+++ refers to >60% increase in time until arrhythmia)"}, {"measurement": "concentration of maximal effect on dispersion of the epicardial activation-recovery interval", "setting": "[7]", "result": "10^−8 mol/l"}, {"measurement": "value given for AAP10 by Dhein et al.", "setting": "[8]", "result": 0.2, "unit": "nM"}]}
{"compound": "Nc1nc(N)nc(-c2cc(Cl)ccc2Cl)n1", "note": "[irsogladine, 6-(2,5-dichlorophenyl)-2,4-diamino-1,3,5-triazine]", "values": [{"measurement": "number of Cx32 grains, % of the normal control value", "setting": "[9]", "result": 70, "unit": "%"}, {"measurement": "effect on GJIC, compound alone", "setting": "GJIC", "result": "did not affect GJIC"}]}
{"compound": "cyclo(GAG[Hyp]PYQ) [Compound 35]", "values": [{"measurement": "CaCl2 mice In vivo, %", "setting": "[3]", "result": "48 +/− 14%"}, {"measurement": "CaCl2 mice Score", "setting": "[3]", "result": 2}, {"measurement": "In vivo activity", "setting": "[3]", "result": "++ (++ refers to 30-50% increase in time until arrhythmia)"}, {"measurement": "T½, PLASMA, HEPARIN RABBIT", "setting": "[6]", "result": "14 hrs ± 2%"}, {"measurement": "Human plasma half life", "setting": "[1]", "result": 15, "unit": "h"}, {"measurement": "T½, PLASMA, HEPARIN HUMAN", "setting": "[1]", "result": "15 hrs ± 1%"}]}
